Common to all, as to format: biochemical
The target in one test is T1, KRAS G12D (Homo sapiens, UniProt P01116, G12D).
T1 construct: made in house; host or cells: E. coli, e.g. BL21 (DE3)
The test is described as follows: HTRF KRAS-SOS1 interaction assay, KRAS G12D. To be noted: binned ≤2 μM / >2 μM, read-out: Inhibition of KRAS G12D (IC50). The procedure, abridged:
(§1)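 GST-tagged KRAS (WT or mutant) with anti-GST-Eu donor, mixed with His-hSOS1 and anti-6His-XL665 acceptor. Buffer ~5 mM HEPES pH 7.4, ~150 mM NaCl, ~1 mM DTT, 0.05% BSA, 0.0025% Igepal; incubated about 10 min or longer. HTRF 665/620 ratio, compounds in duplicate up to 10 μM, IC50 derived.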

A further test addresses T2, KRAS WT (Homo sapiens, UniProt P01116).
T2 construct: made in house; host or cells: E. coli, e.g. BL21 (DE3)
Nature of the test: HTRF KRAS-SOS1 interaction assay, wildtype KRAS. To be noted: binned ≤2 μM / >2 μM, read-out: Inhibition of KRAS WT (IC50). The procedure, abridged: as §1

The target of another test is T3, KRAS G12V (Homo sapiens, UniProt P01116, G12V).
T3 construct: made in house; host or cells: E. coli, e.g. BL21 (DE3)
T3 sequence (P01116 1-188 isoform P01116-2 G12V): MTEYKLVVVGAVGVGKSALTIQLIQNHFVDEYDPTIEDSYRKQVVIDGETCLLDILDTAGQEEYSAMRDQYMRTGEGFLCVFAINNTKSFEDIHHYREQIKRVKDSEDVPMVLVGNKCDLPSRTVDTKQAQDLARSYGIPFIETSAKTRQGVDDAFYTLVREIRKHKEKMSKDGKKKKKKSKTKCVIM
Nature of the test: HTRF KRAS-SOS1 interaction assay, KRAS G12V. To be noted: binned ≤2 μM / >2 μM, read-out: Inhibition of KRAS G12V (IC50). Summed up: as §1

For another test, the target named is T4, KRAS G12S (Homo sapiens, UniProt P01116, G12S).
T4 construct: made in house; host or cells: E. coli, e.g. BL21 (DE3)
T4 sequence (P01116 1-188 isoform P01116-2 G12S): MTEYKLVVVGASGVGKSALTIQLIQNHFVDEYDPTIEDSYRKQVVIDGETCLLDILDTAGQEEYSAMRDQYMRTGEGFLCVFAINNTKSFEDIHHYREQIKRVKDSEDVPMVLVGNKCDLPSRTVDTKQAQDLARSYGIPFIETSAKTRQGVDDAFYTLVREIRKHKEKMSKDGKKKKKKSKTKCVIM
The test is described as follows: HTRF KRAS-SOS1 interaction assay, KRAS G12S. To be noted: binned ≤2 μM / >2 μM, read-out: Inhibition of KRAS G12S (IC50). The procedure, abridged:
as §1

The structures appear in SMILES notation.

T1 sequence (P01116 1-188 isoform P01116-2 G12D): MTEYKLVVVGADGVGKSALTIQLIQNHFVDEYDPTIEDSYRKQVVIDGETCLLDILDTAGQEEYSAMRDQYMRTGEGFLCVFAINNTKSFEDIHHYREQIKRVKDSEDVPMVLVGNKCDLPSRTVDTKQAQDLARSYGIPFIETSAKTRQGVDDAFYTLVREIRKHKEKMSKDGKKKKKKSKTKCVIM
T2 sequence (P01116 1-188 isoform P01116-2): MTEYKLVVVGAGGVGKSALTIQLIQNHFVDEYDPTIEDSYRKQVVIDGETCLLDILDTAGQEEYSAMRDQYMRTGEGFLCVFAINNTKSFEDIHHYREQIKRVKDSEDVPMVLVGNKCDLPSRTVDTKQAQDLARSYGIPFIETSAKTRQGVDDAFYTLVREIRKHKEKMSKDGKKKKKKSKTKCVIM

As for `CN(C)C(=O)C[C@H](c1cccnc1N)N1CCOc2c(C(F)(F)F)c(-c3ccc(F)c4sc(N)c(C#N)c34)c(F)c3nc(OC[C@@]45CCCN4C[C@H](F)C5)nc1c23` [Compound 810, (3R)-3-(9-(2-amino-3-cyano-7-fluorobenzo[b]thiophen-4-yl)-10-fluoro-2-(((2R,7aS)-2-fluorotetrahydro-1H-pyrrolizin-7a(5H)-yl)methoxy)-8-(trifluoromethyl)-5,6-dihydro-4H-[1,4]oxazepino[5,6,7-de]quinazolin-4-yl)-3-(2-aminopyridin-3-yl)-N,N-dimethylpropanamide], the IC50 on KRAS G12D, on KRAS WT, at KRAS G12V and on KRAS G12S was at most 2 µM each time.
With `C[C@H](c1cc(Cl)cnc1N)N1CCOc2c(C(F)(F)F)c(-c3ccc(F)c4sc(N)c(C#N)c34)c(F)c3nc(OCC4(CN5CC[C@@H](F)C5)CC4)nc1c23` [Compound 811, 2-amino-4-(4-((R)-1-(2-amino-5-chloropyridin-3-yl)ethyl)-10-fluoro-2-((1-(((R)-3-fluoropyrrolidin-1-yl)methyl)cyclopropyl)methoxy)-8-(trifluoromethyl)-5,6-dihydro-4H-[1,4]oxazepino[5,6,7-de]quinazolin-9-yl)-7-fluorobenzo[b]thiophene-3-carbonitrile], the IC50 on KRAS G12D, on KRAS WT, on KRAS G12V and on KRAS G12S was at most 2 µM throughout.
For `C[C@H](c1ccc(CN)nc1N)N1CCOc2c(Cl)c(-c3ccc(F)c4sc(N)c(C#N)c34)c(F)c3nc(OC[C@@]45CCCN4C[C@H](F)C5)nc1c23` [Compound 813, 2-amino-4-(4-((R)-1-(2-amino-6-(aminomethyl)pyridin-3-yl)ethyl)-8-chloro-10-fluoro-2-(((2R,7aS)-2-fluorotetrahydro-1H-pyrrolizin-7a(5H)-yl)methoxy)-5,6-dihydro-4H-[1,4]oxazepino[5,6,7-de]quinazolin-9-yl)-7-fluorobenzo[b]thiophene-3-carbonitrile], the IC50 on KRAS G12D, at KRAS WT, at KRAS G12V and at KRAS G12S was at most 2 µM each time.
Turning to `C[C@H](c1cccnc1N)N1CCOc2c(C(F)(F)F)c(-c3ccc(F)c4sc(N)c(C#N)c34)c(F)c3nc(OCC4(CN5CCC(=CF)CC5)CC4)nc1c23` [Compound 814, 2-amino-4-(4-((R)-1-(2-aminopyridin-3-yl)ethyl)-10-fluoro-2-((1-((4-(fluoromethylene)piperidin-1-yl)methyl)cyclopropyl)methoxy)-8-(trifluoromethyl)-5,6-dihydro-4H-[1,4]oxazepino[5,6,7-de]quinazolin-9-yl)-7-fluorobenzo[b]thiophene-3-carbonitrile], the concentration for half-maximal inhibition (IC50) on KRAS G12D, at KRAS WT, at KRAS G12V and on KRAS G12S was at most 2 µM in each case.
As for `COc1cnc(N)c([C@@H](C)N2CCOc3c(C(F)(F)F)c(-c4ccc(F)c5sc(N)c(C#N)c45)c(F)c4nc(OC[C@@]56CCCN5C[C@H](F)C6)nc2c34)c1` [Compound 815, 2-amino-4-(4-((R)-1-(2-amino-5-methoxypyridin-3-yl)ethyl)-10-fluoro-2-(((2R,7aS)-2-fluorotetrahydro-1H-pyrrolizin-7a(5H)-yl)methoxy)-8-(trifluoromethyl)-5,6-dihydro-4H-[1,4]oxazepino[5,6,7-de]quinazolin-9-yl)-7-fluorobenzo[b]thiophene-3-carbonitrile], the IC50 at KRAS G12D, on KRAS WT, at KRAS G12V and on KRAS G12S was at most 2 µM each time.
For the molecule `C[C@H](c1cccnc1F)N1CCOc2c(C(F)(F)F)c(-c3ccc(F)c4sc(N)c(C#N)c34)c(F)c3nc(OC[C@@]45CCCN4C[C@H](F)C5)nc1c23` [Compound 817, 2-amino-7-fluoro-4-(10-fluoro-4-((R)-1-(2-fluoropyridin-3-yl)ethyl)-2-(((2R,7aS)-2-fluorotetrahydro-1H-pyrrolizin-7a(5H)-yl)methoxy)-8-(trifluoromethyl)-5,6-dihydro-4H-[1,4]oxazepino[5,6,7-de]quinazolin-9-yl)benzo[b]thiophene-3-carbonitrile], the IC50 at KRAS G12D, on KRAS WT, at KRAS G12V and at KRAS G12S was at most 2 µM each time.
Regarding `C[C@H](c1cc(Cl)cnc1N)N1CCOc2c(C(F)(F)F)c(-c3ccc(F)c4sc(N)c(C#N)c34)c(F)c3nc(OCC4(CN5CCC(=CF)CC5)CC4)nc1c23` [Compound 819, 2-amino-4-(4-((R)-1-(2-amino-5-chloropyridin-3-yl)ethyl)-10-fluoro-2-((1-((4-(fluoromethylene)piperidin-1-yl)methyl)cyclopropyl)methoxy)-8-(trifluoromethyl)-5,6-dihydro-4H-[1,4]oxazepino[5,6,7-de]quinazolin-9-yl)-7-fluorobenzo[b]thiophene-3-carbonitrile], the IC50 on KRAS G12D, at KRAS WT, at KRAS G12V and on KRAS G12S was at most 2 µM in each case.
With `N#Cc1c(N)sc2c(F)ccc(-c3c(C(F)(F)F)c4c5c(nc(OC[C@@]67CCCN6C[C@H](F)C7)nc5c3F)N([C@H](CCn3cccn3)c3cccnc3N)CCO4)c12` [Compound 829, 2-amino-4-(4-((R)-1-(2-aminopyridin-3-yl)-3-(1H-pyrazol-1-yl)propyl)-10-fluoro-2-(((2R,7aS)-2-fluorotetrahydro-1H-pyrrolizin-7a(5H)-yl)methoxy)-8-(trifluoromethyl)-5,6-dihydro-4H-[1,4]oxazepino[5,6,7-de]quinazolin-9-yl)-7-fluorobenzo[b]thiophene-3-carbonitrile], the 50% inhibitory concentration (IC50) at KRAS G12D, at KRAS WT, at KRAS G12V and at KRAS G12S was at most 2 µM throughout.
As for `C[C@H](c1cc(Cl)cnc1N)N1CCOc2c(C(F)(F)F)c(-c3ccc(F)c4sc(N)c(C#N)c34)c(F)c3nc(OCC4(CN5CCC(F)CC5)CC4)nc1c23` [Compound 830, 2-amino-4-(4-((R)-1-(2-amino-5-chloropyridin-3-yl)ethyl)-10-fluoro-2-((1-((4-fluoropiperidin-1-yl)methyl)cyclopropyl)methoxy)-8-(trifluoromethyl)-5,6-dihydro-4H-[1,4]oxazepino[5,6,7-de]quinazolin-9-yl)-7-fluorobenzo[b]thiophene-3-carbonitrile], the IC50 on KRAS G12D, on KRAS WT, on KRAS G12V and on KRAS G12S was at most 2 µM in each case.
On to `N#Cc1c(N)sc2c(F)ccc(-c3c(Cl)c4c5c(nc(OC[C@@]67CCCN6C[C@@]6(CC6(F)F)C7)nc5c3F)N([C@@H](c3cccnc3N)C(F)F)CCO4)c12` [Compound 831, 2-amino-4-(4-((S)-1-(2-aminopyridin-3-yl)-2,2-difluoroethyl)-8-chloro-2-(((1S,7a′S)-2,2-difluorodihydro-1′H,3′H-spiro[cyclopropane-1,2′-pyrrolizin]-7a′(5′H)-yl)methoxy)-10-fluoro-5,6-dihydro-4H-[1,4]oxazepino[5,6,7-de]quinazolin-9-yl)-7-fluorobenzo[b]thiophene-3-carbonitrile], for which the IC50 at KRAS G12D, at KRAS WT, on KRAS G12V and on KRAS G12S was at most 2 µM each time.
On to `N#Cc1c(N)sc2c(F)ccc(-c3c(Cl)c4c5c(nc(OC[C@@]67CCCN6C[C@H](F)C7)nc5c3F)N([C@@H](c3cccnc3N)C(F)(F)F)CCO4)c12` [Compound 833, 2-amino-4-(4-((S)-1-(2-aminopyridin-3-yl)-2,2,2-trifluoroethyl)-8-chloro-10-fluoro-2-(((2R,7aS)-2-fluorotetrahydro-1H-pyrrolizin-7a(5H)-yl)methoxy)-5,6-dihydro-4H-[1,4]oxazepino[5,6,7-de]quinazolin-9-yl)-7-fluorobenzo[b]thiophene-3-carbonitrile], for which the 50% inhibitory concentration (IC50) at KRAS G12D, on KRAS WT, at KRAS G12V and on KRAS G12S was at most 2 µM in each case.
Take `C=CC(F)(F)[C@@H](c1cccnc1N)N1CCOc2c(Cl)c(-c3ccc(F)c4sc(N)c(C#N)c34)c(F)c3nc(OC[C@@]45CCCN4C[C@H](F)C5)nc1c23` [Compound 834, 2-amino-4-(4-((R)-1-(2-aminopyridin-3-yl)-2,2-difluorobut-3-en-1-yl)-8-chloro-10-fluoro-2-(((2R,7aS)-2-fluorotetrahydro-1H-pyrrolizin-7a(5H)-yl)methoxy)-5,6-dihydro-4H-[1,4]oxazepino[5,6,7-de]quinazolin-9-yl)-7-fluorobenzo[b]thiophene-3-carbonitrile]: the IC50 at KRAS G12D is over 2 µM; at KRAS WT it was at most 2 µM; on KRAS G12V, at most 2 µM; at KRAS G12S it was at most 2 µM.
Regarding `C[C@H](c1cccnc1N)N1CCOc2c(C(F)(F)F)c(-c3ccc(F)c4sc(N)c(C#N)c34)c(F)c3nc(OCC4(CN5CCC(F)CC5)CC4)nc1c23` [Compound 836, 2-amino-4-(4-((R)-1-(2-aminopyridin-3-yl)ethyl)-10-fluoro-2-((1-((4-fluoropiperidin-1-yl)methyl)cyclopropyl)methoxy)-8-(trifluoromethyl)-5,6-dihydro-4H-[1,4]oxazepino[5,6,7-de]quinazolin-9-yl)-7-fluorobenzo[b]thiophene-3-carbonitrile], the IC50 on KRAS G12D, on KRAS WT, on KRAS G12V and on KRAS G12S was at most 2 µM throughout.

Source of the values: US12668600B2 (Kumquat Biosciences Inc., priority 2023, dated 2026).
